The values below are quoted from earlier work in patent US20050245902A1, “Substance delivery device” (priority 2002, published 2005).

Structures are written as SMILES.

For data set [1] the following is noted: in vivo.

On to `CC(=O)[C@H]1CC[C@H]2[C@@H]3CCC4=CC(=O)CC[C@]4(C)[C@H]3CC[C@]12C` [progesterone], for which the water solubility result is listed as “poorly water-soluble”. In data set [1], the half life is 20 min.
